Data from patent publication US20250268848A1, “COMPOSITIONS COMPRISING ENDOSIDIN 2 FOR REDUCING SARS-COV-2 INFECTION” (HENRY FORD HEALTH SYSTEM, priority 2021, published 2025).

How the values were obtained:
[1] = system: ACE2 translocation to the cell surface of CD14+ monocytes; experiment: Flow cytometry of ACE2 surface expression in PBMCs pre-treated with ES2 before R848 or LPS; assay type: cell-based, human; conditions: PBMCs pre-treated with ES2 1-2 h, then R848 or LPS 4 h
Method: Bars represent mean±SEM of biologically independent samples, (n=3/group for 40 μM ES2 condition; n=4/group for all other conditions).
For ex vivo stimulation assays analyzed by flow cytometry, fresh PBMCs were isolated from CPT tubes using a standard protocol. Briefly, whole blood cells were diluted with Ca^2+-free and Mg^2+-free PBS buffer (Corning, NY) containing 2% fetal bovine serum (FBS, R&D Systems, Minneapolis, MN) and 2 mM EDTA (VWR Life Science, Radnor, PA) and slowly overlaid onto Ficoll-Paque™ (GE healthcare, Chicago, IL) at 2:1 ratio by volume. The samples were centrifuged at RT for 20 min at 800×g with no braking. Next, the mononuclear cell layer at the plasma-Ficoll interface was moved into a new 50 ml tube and washed with PBS buffer and red blood cell lysis buffer at RT for 5 min. The isolated PBMCs were used on the day of isolation or placed at −80° C. for storage. Two million fresh or thawed PBMCs were transferred to each well of a round-bottom 96-well culture plate (Thermo Fisher Scientific) in 200 μL of RPMI medium containing 10% FBS. The thawed PBMCs were recovered for 2 h at 37° C. with 5% C02. […]
Flow cytometry methods. […] All data were analyzed using FlowJo 10.5.3 (BO Biosciences). […]

[2] = system: Hela cells; conditions: cited from earlier work
[3] = system: PBMCs; experiment: Flow cytometry of ACE2 and TMPRSS2 cell surface expression in PBMCs stimulated ex vivo; assay type: cell-based, human; conditions: mean±SEM
Method: Mouse IgG1 antibodies were used as the isotype controls.
PBMCs were ex vivo cultured with R848, LPS or medium alone for 4 hrs, 24 hrs, and 48 hrs. Representative flow cytometric analysis of surface expression of ACE2 and TMPRSS2 in cDC.
PBMCs were ex vivo cultured with PMA plus ionomycin for 4 h. Representative flow cytometric analysis of surface expression of TMPRSS2 in CD4+, CD8+ and total T cells.
For ex vivo stimulation assays analyzed by flow cytometry, fresh PBMCs were isolated from CPT tubes using a standard protocol. Briefly, whole blood cells were diluted with Ca^2+-free and Mg^2+-free PBS buffer (Corning, NY) containing 2% fetal bovine serum (FBS, R&D Systems, Minneapolis, MN) and 2 mM EDTA (VWR Life Science, Radnor, PA) and slowly overlaid onto Ficoll-Paque™ (GE healthcare, Chicago, IL) at 2:1 ratio by volume. The samples were centrifuged at RT for 20 min at 800×g with no braking. Next, the mononuclear cell layer at the plasma-Ficoll interface was moved into a new 50 ml tube and washed with PBS buffer and red blood cell lysis buffer at RT for 5 min. The isolated PBMCs were used on the day of isolation or placed at −80° C. for storage. Two million fresh or thawed PBMCs were transferred to each well of a round-bottom 96-well culture plate (Thermo Fisher Scientific) in 200 μL of RPMI medium containing 10% FBS. The thawed PBMCs were recovered for 2 h at 37° C. with 5% C02. In some experiments, PBMCs were treated with different concentrations of ES2 (Sigma Aldrich) or 0.25% DMSO (the vehicle for ES2 at the highest concentration; ATCC, Manassas, VA) for 1-2 h during recovery stage. The fresh and recovered cells were then cultured with 1 μg/ml R848, LPS, or medium alone for 4 h. For TCR-independent T cell stimulation, PBMCs were cultured in RPMI medium containing 10% FBS in the presence of phorbol 12-myristate 13-acetate (PMA) (50 ng/ml) and ionomycin (1 μM) for a total of 4 h at 37° C. After incubation, the cells were washed with wash buffer in PBS containing 2% FBS and 1 mM EDTA prior to staining.
Flow cytometry methods. Single-cell suspensions were centrifuged at 450×g for 7 min, resuspended in ice-cold staining buffer (1×PBS with 2% FBS), and placed in a 96-well round-bottom plate (Thermo Fisher Scientific). After incubation with human Fe receptor blocking solution (Biolegend, San Diego, CA) at 4° C. for 15 min, cells were stained with a mixture of fluorescent surface antibodies at 4° C. for 30 min. For intracellular staining, the cells were fixed with IC Fixation Buffer (eBiosciences™, Thermo Fisher Scientific) at 4° C. for 30 min followed by incubation with fluorescent intracellular antibody cocktail in 1× Intracellular Fixation & Permeabilization Buffer (eBiosciences™, Thermo Fisher Scientific) at 4° C. for 30 min. The full list of fluorescent antibodies used is in Table 1 below. DAPI was added to the unfixed cells with surface staining at a final concentration of 1 μg/ml immediately before sample acquisition. The stained samples were then acquired on a FACSCelesta™ flow cytometer (BO Biosciences) using BO FACSDiva software version 8.0.2 (BO Biosciences). All data were analyzed using FlowJo 10.5.3 (BO Biosciences).
Methods. Flow cytometry and qRT-PCR were utilized as described in Example 1.

[4] = system: blood myeloid cells; experiment: Mass cytometry (CyTOF) of surface ACE2 in whole blood myeloid cells stimulated ex vivo with R848; assay type: cell-based, human; conditions: 4 h ex vivo, COVID-19 patients and healthy controls, mean±SEM

In the case of COc1cc(/C=N/NC(=O)c2cccc(F)c2)cc(I)c1O [ES2, 3-fluoro-benzoic acid, (2E)-2-[(4-hydroxy-3-iodo-5-methoxyphenyl)methylene]hydrazide], the “rapid translocation of ACE2 to the monocyte cell surface” value [1] is listed as “blocked” and the “recycling of endocytosed transferrin to the plasma membrane” value [2] is listed as “inhibits”.

For lipopolysaccharide [LPS], the “ACE2+ TMPRSS2+ cDCs” value [3] was 1.1%±0.21, the “cell surface ACE2 localization in cDCs” value [3] was 8.9%±0.98 and the “surface expression of TMPRSS2 in cDCs” value [3] was 3.2%±0.87.

With CCOCc1nc2c(N)nc3ccccc3c2n1CC(C)(C)O [R848, resiquimod] the “ACE2+ TMPRSS2+ cDCs” value [3] was 1.1%±0.21, the “cell surface ACE2 localization in cDCs” value [3] was 8.9%±0.98 and the “surface expression of TMPRSS2 in cDCs” value [3] was 3.2%±0.87. For the same compound, the “surface expression of ACE2 in CD14+ classic monocytes” value [4] was 11.0±2.7%.
